Experiments:
Test in all cases: relative viability (nuclei count vs DMSO), 5 days (fraction); higher = more cells survive
[1] = compound: Cn1cnc2c(F)c(Nc3ccc(Br)cc3Cl)c(C(=O)NOCCO)cc21 [Selumetinib] + O=C(CCCCCCC(=O)Nc1ccccc1)NO [Vorinostat] (partner 1 µM)
Method in brief: (§1)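 Relative viability equals treated-well nuclei counts divided by vehicle-well nuclei counts. Counts came from 4× images of lung cancer cell lines grown in 1536-well plates for 5 days after pin-tool dosing on the day after seeding. Dosing used one drug alone or a fixed anchor-drug dose plus five library-drug doses (not always all listed) in √10 steps, and values are medians of duplicate plates.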

[2] = compound: Cn1cnc2c(F)c(Nc3ccc(Br)cc3Cl)c(C(=O)NOCCO)cc21 [Selumetinib] + Nc1ncn([C@H]2C[C@H](O)[C@@H](CO)O2)c(=O)n1 [Decitabine] (partner 2 µM)
Method in brief: as §1

[3] = compound: CC1(C)CCC(CN2CCN(c3ccc(C(=O)NS(=O)(=O)c4ccc(NCC5CCOCC5)c([N+](=O)[O-])c4)c(Oc4cnc5[nH]ccc5c4)c3)CC2)=C(c2ccc(Cl)cc2)C1 [Venetoclax] + O=C(CCCCCCC(=O)Nc1ccccc1)NO [Vorinostat] (partner 1 µM)
Method in brief: as §1

[4] = compound: Cn1cnc2c(F)c(Nc3ccc(Br)cc3Cl)c(C(=O)NOCCO)cc21 [Selumetinib] + Cc1nc(Nc2ncc(C(=O)Nc3c(C)cccc3Cl)s2)cc(N2CCN(CCO)CC2)n1 [Dasatinib] (partner 0.075 µM)
Method in brief: as §1

Cell Line	relative viability ([1]; first compound 0.02 µM)	relative viability ([1]; first compound 0.06325 µM)	relative viability ([1]; first compound 0.2 µM)	relative viability ([1]; first compound 0.6325 µM)	relative viability ([2]; first compound 0.02 µM)	relative viability ([2]; first compound 0.06325 µM)	relative viability ([2]; first compound 0.2 µM)	relative viability ([2]; first compound 0.6325 µM)	relative viability ([3]; first compound 0.01 µM)	relative viability ([3]; first compound 0.03162 µM)	relative viability ([3]; first compound 0.1 µM)	relative viability ([3]; first compound 0.3162 µM)	relative viability ([3]; first compound 1 µM)	relative viability ([4]; first compound 0.02 µM)	relative viability ([4]; first compound 0.06325 µM)	relative viability ([4]; first compound 0.2 µM)	relative viability ([4]; first compound 0.6325 µM)
NCI-H2342	0.784	0.746	0.737	0.812	0.778	0.716	0.727	0.638	0.667	0.823	0.739	0.683	0.802	0.362	0.32	0.37	0.293
SK-MES-1	0.938	0.85	0.853	0.65	0.416	0.307	0.356	0.323	1.01	1.1	1.06	1.08	0.966	0.284	0.271	0.235	0.226
LCLC-97TM1	0.925	0.714	0.661	0.437	0.258	0.217	0.296	0.197	0.453	0.892	0.443	0.635	0.667	0.866	0.674	0.543	0.272
HCC-44	1.1	1.05	1.06	1.07	1.03	0.982	0.962	0.942	1.05	1.14	1.08	1.1	1	–	–	–	–
201T	0.929	0.876	0.877	0.814	0.795	0.817	0.786	0.824	0.858	1.02	0.917	0.975	0.947	0.589	0.571	0.585	0.555
HOP-62	0.579	0.556	0.555	0.349	0.164	0.278	0.238	0.232	0.578	0.572	0.552	0.667	0.568	0.583	0.526	0.387	0.249
NCI-H661	0.882	0.772	0.75	0.799	0.572	0.492	0.546	0.51	0.741	0.804	0.692	0.893	0.722	0.902	0.821	0.805	0.731
NCI-H2087	0.582	0.258	0.514	0.445	0.267	0.253	0.249	0.213	0.606	0.824	0.881	0.799	0.953	0.535	0.293	0.273	0.13
NCI-H647	0.697	0.38	0.727	0.712	0.354	0.351	0.621	0.447	0.451	0.629	0.529	0.528	0.465	0.187	0.2	0.167	0.154
SW 1573	0.652	0.582	0.703	0.914	0.505	0.369	0.384	0.373	0.712	0.656	0.643	0.692	0.572	0.589	0.362	0.534	0.446
A-427	0.93	0.94	0.976	0.878	0.537	0.575	0.53	0.55	0.834	0.863	0.857	0.849	0.879	0.785	0.729	0.555	0.407
NCI-H520	0.774	0.73	0.785	0.71	0.551	0.493	0.523	0.606	0.761	0.75	–	0.668	0.733	0.261	0.29	0.278	0.306
NCI-H1755	0.821	0.68	0.726	0.852	0.716	0.729	0.662	0.73	0.751	0.801	0.774	0.739	0.741	0.417	0.388	0.407	0.476
NCI-H1975	0.726	0.605	0.582	0.473	0.615	0.384	0.385	0.334	0.692	0.678	0.743	0.688	0.72	0.333	0.299	0.272	0.269
SK-LU-1	0.779	0.717	0.686	0.443	0.793	0.65	0.572	0.438	0.771	0.803	0.755	0.745	0.719	0.177	0.208	0.181	0.141
EMC-BAC-2	0.928	0.682	0.607	0.865	0.991	0.976	0.997	0.942	0.465	0.783	0.352	0.672	0.417	0.352	0.419	0.379	0.391
LK-2	0.296	0.288	0.296	0.711	0.305	0.278	0.404	0.399	0.214	0.38	0.304	0.278	0.248	0.281	0.31	0.308	0.389
NCI-H23	0.649	0.561	0.557	0.668	0.324	0.268	0.319	0.302	0.565	0.752	0.54	0.619	0.521	0.808	0.644	0.5	0.397
NCI-H441	0.843	0.868	0.783	0.778	0.244	0.224	0.207	0.268	0.78	0.762	1.02	0.868	0.743	0.602	0.363	0.41	0.307

Source: the supplement of paper PMC10307832
